Tests used:
Format in all cases: cell-based, human
MCF-7 cells = assay: LC3-II accumulation in TG2-negative MCF-7 cells; conditions: MCF-7 (TG2-negative), optimal conditions
Protocol: (A) A panel of pancreatic cancer cell lines including MDA-Panc28, Capan-2, Bx-PC3, Panc1 and MIAPaCa cells were treated with Rottlerin (4 μM) for 48 h for the detection of LC3-II and TG2 expression by western blot. (B) MCF-7 cell line was also tested for LC3-II and TG2 expression by western blot. (C) Expression of TG2 in MDA-Panc28 cells was determined upon exposure to different treatments (D) Detection of autophagolysosomes; MDA-Panc28 cells were treated with either control siRNA, Rottlerin or TG2 siRNA for 48 h. Photomicrographs show morphological changes of the cells by phase contrast microscopy (left panels); acridine orange staining of the acidic vesicular organelles by fluorescent microscopy (center panels) and the localization LC3-II at autophagosomes in cells after transfection with GFP-LC3 plasmid (right panels). […]
(§1) After treatment, the cells were collected and centrifuged, and whole-cell lysates were obtained using a lysis buffer. Total protein concentration was determined using a DC protein assay kit (Bio-Rad, Hercules, Calif., USA). […] Mouse anti-β-actin and donkey anti-mouse secondary antibody were purchased from Sigma Chemical (St. Louis, Mo., USA) so that β-actin expression could be monitored to ensure equal loading of proteins. […] The blots were visualized with a Fluor Chem 8900 imager and quantified by a densitometer using the Alpha Imager application program (Alpha Innotech). […]

[1] = system: Bx-PC3, MIAPaCa, MDA-Panc28, Panc1 and Capan-2 cells; assay: Growth inhibition in pancreatic cancer cell lines
Protocol: (A) Different pancreatic cancer cell lines were treated with rottlerin (4 μM) for 48 h, and viable cells were detected by proliferation assay using Alamar Blue staining. Bars represent growth inhibition after normalizing untreated cells to 100%. (B) Growth of the indicated cell lines after treatment with rottlerin (4 μM) for 48 and 96 h.
Pancreatic cell lines MDA-Panc28, Capan-2, Bx-PC3, Panc1 and MIAPaCa were provided by Dr. Shrikant Reddy (M. D. Anderson Cancer Center). MDA-Panc28 and Bx-PC3 cell lines were maintained in RPMI-1640 medium supplemented with 10% fetal calf serum. Panc1 and MIAPaCa cell lines and Capan-2 cells were maintained in DMEM and McCoy's 5A, respectively. All media were supplemented with 10% fetal calf serum. For the cell proliferation experiments, cells were seeded at a density of 1-2×10^5 cells in T-25 tissue culture flasks. Twenty-four hours after the seeding, cells were treated with various concentrations of rottlerin for the indicated periods of time. Adherent cells were collected by trypsinization, and cell numbers were determined using a Neubauer cell counting chamber. All experiments were replicated at least two times.

MDA-Panc28 cells = assay: Acidic vesicular organelles / autophagy by acridine orange FACS; conditions: 48 h, flow cytometry; control cells 8%
Protocol: To detect and quantify acidic vesicular organelles, cells were stained with acridine orange as described previously. The number of acridine orange-positive cells was determined by fluorescence-activated cell sorting (FACS) analysis. Cell morphology was examined using phase-contrast and fluorescence microscopy (Nikon, Melville, N.Y., USA) with the cells remaining in their culture flasks.
Exponentially growing untreated MDA-Panc28 cells were plated 24 h before transfection. Plated cells were transfected with double-stranded siRNA targeting TG2 mRNA and control (non-silencing) siRNA (all from Qiagen, Venlo, Netherlands) and/or the green fluorescent protein (GFP) and microtubule-associated protein 1 light chain 3 (LC3) fusion vector (GFP-LC3) using the Qiagen transfection reagent according to the manufacturer's protocol. Two siRNA sequences targeting TG2 were designed using siRNA-designing software (Qiagen). PKCδ siRNA was obtained from Santa Cruz Biotechnology (Santa Cruz, Calif., USA). Untransfected cells and non-silencing control siRNA-transfected cells were used as negative controls. After treatment, the cells were harvested for western blot analysis or FACS analysis to determine whether autophagy had occurred.

TG2 = TG2 protein expression in MDA-Panc28 cells (western blot); conditions: 48 h
Protocol: (A) Cells at 80% confluence were treated with 1 μM, 2 μM or 4 μM rottlerin. After 48 h of treatment, the cells were lysed and cell lysates were fractionated by sodium dodecyl sulfate polyacrylamide gel electrophoresis (SDS-PAGE) and transferred onto nitrocellulose membrane to determine PKCδ and TG2 protein expression by western blot analysis. The membrane was stripped and reprobed with an anti-β-actin antibody to confirm equal loading of protein in each lane. (B) Total RNA was extracted, and transcript levels of TG2 and β-actin were determined by RT-PCR analysis as described in Materials and Methods. Relative expression levels were determined by densitometry as compared with β-actin. Experiments were repeated at least three times.
as §1

SMILES: CC(=O)c1c(O)c(C)c(O)c(Cc2c(O)c3c(c(C(=O)/C=C/c4ccccc4)c2O)OC(C)(C)C=C3)c1O [rottlerin]
- LC3-II accumulation (MCF-7 cells): failed to produce any increase in LC3-II accumulation
- growth inhibition ([1]; 4 μM for 48 h, five cell lines): induced growth inhibition in all five cell lines tested
- time course of growth inhibition ([1]; 4 μM, 48 and 96 h, MDA-Panc28, Bx-PC3, MIAPaCa): time-dependent inhibition in cell growth of all three
- percentage of red fluorescein-positive cells (acidic vesicular organelles) (MDA-Panc28 cells): 64%
- inhibition of TG2 protein expression (TG2; 1 μM): 44%
- inhibition of TG2 protein expression (maximum) (TG2; 4 μM): 94%
